Test results published in US10954287B2, “Ras binding peptides and methods of use” (Ra Pharmaceuticals, Inc., priority 2016, dated 2021).
Where a SMILES comes first, the peptide text is derived from it. Bridges are numbered along the chain shown (N, C = ends). [ ]: non-standard residue; d: D form. The star is where a group is joined. 4‑(dimethylamino)benzoyl‑d4 = DMABZK2: N6-(4-(dimethylamino)benzoyl-2,3,5,6-d4)-L-lysine, [2H]c1c([2H])c(N(C)C)c([2H])c([2H])c1C(=O)*; ADTZPA = (S)-2-amino-3-(1-dodecyl-1H-1,2,3-triazol-4-yl)propanoic acid; m‑xylylene = m-xylylene thioether bridge between Cys; Trp(7-aza) = N[C@@H](Cc1c[nH]c2ncccc12)C(=O)O; NMePhe(4-F) = CN[C@@H](Cc1ccc(F)cc1)C(=O)O; PEG4 = NCCOCCOCCOCCOCCC(=O)O; Phg = N[C@H](C(=O)O)c1ccccc1; Tle = CC(C)(C)[C@H](N)C(=O)O; NMeA = CN[C@@H](C)C(=O)O; Pra = C#CC[C@H](N)C(=O)O; Nva = CCC[C@H](N)C(=O)O; Ahx = NCCCCCC(=O)O; Sar = CNCC(=O)O

Experiments:
[1] = tested on: GMPPNP-loaded H-Ras or GTP-loaded K-Ras; test: Fluorescence polarization competition assay with TAMRA-labeled probe R4007; type: binding, human; settings: 120 nM Ras, 30 nM probe R4007, 60 minutes at room temperature; read-out: Probe displacement (nM IC50)
In short: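 120 nM GMPPNP-loaded H-Ras or GTP-loaded K-Ras was preincubated with 30 nM TAMRA-labeled R4007 probe for 20 min at room temperature in Tris pH 7.5 buffer with MgCl2, EDTA and Triton X-100. Serially diluted competitor was then added for 60 min. Polarization was read at 535/595 nm, with Ki from a one-site Ki fit and IC50 from probe displacement.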

[2] = tested on: human lung cancer cell line H358; test: Cell permeability by monitoring intracellular fluorescence; type: cell-based; settings: H358 cells treated 3.5 hours, serum-free media; compared to negative control and scrambled R4007
Method: Cell permeability of R4007 (a TAMRA-labeled R4000 derivative) was determined in the human lung cancer cell line H358 (ATCC, Manassas, Va.). Cells were maintained in RPMI-1640 with 10% FBS at 37° C., 95% relative humidity, 5% CO2. For experiments, cells were seeded at 50,000 cells/well in growth media on 96-well glass bottom plates (Greiner, Monroe, N.C.) and incubated 24 hours prior to treatment. Media was removed from cells and replaced with indicated treatment solutions prepared in serum-free media (0.1% DMSO final). Cells were treated for 3.5 hours, then washed 3 times with PBS, fixed with 4% formaldehyde in PBS for 5 minutes at room temperature, and washed 3 times with PBS. Cell nuclei were stained with 1 μg/ml DAPI nuclear stain for 5 minutes at room temperature. Images were captured using a Zeiss Axio Observer inverted microscope with 63× oil objective with excitation 365 nm/emission 445 for DAPI and excitation 565 nm/emission 620 for TAMRA. TAMRA signal was much stronger in cells treated with R4007 as compared to negative control and cells treated with scrambled R4007.

| Compound | IC50 [1] [nM] | intracellular TAMRA signal [2] |
| --- | --- | --- |
| CCC[C@H](NC(C)=O)C(=O)N[C@H]1CSCc2cccc(c2)CSC[C@@H](C(=O)NCC(=O)NCC(=O)NCC(=O)N[C@@H](CS)C(=O)N[C@H](C(=O)N[C@H](C(=O)N[C@@H](CCSC)C(=O)O)[C@@H](C)CC)C(C)C)NC(=O)CN(C)C(=O)[C@H](C)N(C)C(=O)[C@H](Cc2ccc(O)cc2)NC(=O)[C@H](Cc2c[nH]c3ncccc23)NC(=O)[C@H](C)NC(=O)[C@H](C)N(C)C(=O)[C@H](Cc2c[nH]cn2)NC(=O)[C@H](CCCCN)NC(=O)[C@H](C(C)(C)C)NC(=O)[C@H](Cc2ccc(O)cc2)NC1=O (relative stereo) [Compound R4143, ACE-NVA-CYS*-TYR-TBG-LYS-HIS-NMA-ALA-7AW-TYR-NMA-SAR-CYS*-GLY-GLY-GLY-CYS-VAL-ILE-MET] | 1640 | – |
| CCC[C@H](NC(C)=O)C(=O)N[C@H]1CSCc2cccc(c2)CSC[C@@H](C(=O)NCC(=O)NCC(=O)NCC(=O)N[C@@H](CS)C(=O)N[C@@H](C)C(=O)N[C@H](C(=O)N[C@@H](CC(C)C)C(N)=O)[C@@H](C)CC)NC(=O)CN(C)C(=O)[C@H](Cc2ccc(F)cc2)N(C)C(=O)[C@H](Cc2ccc(O)cc2)NC(=O)[C@H](Cc2c[nH]c3ncccc23)NC(=O)[C@H](c2ccccc2)NC(=O)[C@H](C)N(C)C(=O)[C@H](Cc2c[nH]cn2)NC(=O)[C@H](CCCCN)NC(=O)[C@H](C(C)(C)C)NC(=O)[C@H](Cc2ccc(O)cc2)NC1=O (relative stereo) [Compound R4120, ACE-NVA-CYS*-TYR-TBG-LYS-HIS-NMA-PHG-S7AW-TYR-MFF-AR-CYS*-GLY-GLY-GLY-CYS-ALA-ILE-LEU-NH2] | 65.7 | – |
| CCC[C@H](NC(C)=O)C(=O)N[C@H]1CSCc2cccc(c2)CSC[C@@H](C(=O)N[C@@H](Cc2cn(CCCNC(=O)c3ccc(-c4c5ccc(=[N+](C)C)cc-5oc5cc(N(C)C)ccc45)c(C(=O)[O-])c3)nn2)C(N)=O)NC(=O)CN(C)C(=O)[C@H](Cc2ccc(F)cc2)N(C)C(=O)[C@H](Cc2ccc(O)cc2)NC(=O)[C@H](Cc2c[nH]c3ncccc23)NC(=O)[C@H](c2ccccc2)NC(=O)[C@H](C)N(C)C(=O)[C@H](Cc2cnc[nH]2)NC(=O)[C@H](CCCCN)NC(=O)[C@H](C(C)(C)C)NC(=O)[C@H](Cc2ccc(O)cc2)NC1=O [Compound R4007] | – | much stronger |
| CCC[C@H](NC(C)=O)C(=O)N[C@H]1CSCc2cccc(c2)CSC[C@@H](C(N)=O)NC(=O)CN(C)C(=O)[C@H](Cc2ccc(F)cc2)N(C)C(=O)[C@H](Cc2ccc(O)cc2)NC(=O)[C@H](Cc2c[nH]c3ncccc23)NC(=O)[C@H](c2ccccc2)NC(=O)[C@H](C)N(C)C(=O)[C@H]2CCCN2C(=O)[C@H](CCCCN)NC(=O)[C@H](C(C)(C)C)NC(=O)[C@H](Cc2ccc(O)cc2)NC1=O (relative stereo) [Compound R4144, ACE-NVA-CYS*-TYR-TBG-LYS-DPRO-NMA-PHG-7AW-TYR-MFF-SAR-CYS*-NH2] | 1960 | – |
| CCC[C@H](NC(C)=O)C(=O)N[C@H]1CSCc2cccc(c2)CSC[C@@H](C(=O)NCC(=O)NCC(=O)NCC(=O)N[C@@H](CS)C(=O)N[C@H](C(=O)N[C@H](C(=O)N[C@@H](CCSC)C(=O)O)[C@@H](C)CC)C(C)C)NC(=O)CN(C)C(=O)[C@H](Cc2ccc(F)cc2)N(C)C(=O)[C@H](Cc2ccc(O)cc2)NC(=O)[C@H](Cc2c[nH]c3ncccc23)NC(=O)[C@H](c2ccccc2)NC(=O)[C@H](C)N(C)C(=O)[C@H](Cc2c[nH]cn2)NC(=O)[C@H](CCCCN)NC(=O)[C@H](C(C)(C)C)NC(=O)[C@H](Cc2ccc(O)cc2)NC1=O (relative stereo) [Compound R4131, ACE-NVA-CYS*-TYR-TBG-LYS-HIS-NMA-PHG-7AW-TYR-MFF-SAR-CYS*-GLY-GLY-GLY-CYS-VAL-ILE-MET] | 278 | – |
| CCC[C@H](NC(C)=O)C(=O)N[C@H]1CSCc2cccc(c2)CSC[C@@H](C(N)=O)NC(=O)CN(C)C(=O)[C@H](Cc2ccc(F)cc2)N(C)C(=O)[C@H](Cc2ccc(O)cc2)NC(=O)[C@H](Cc2c[nH]c3ncccc23)NC(=O)[C@H](c2ccccc2)NC(=O)[C@H](C)N(C)C(=O)[C@H](Cc2c[nH]cn2)NC(=O)[C@H](CCCCN)NC(=O)[C@H](C(C)(C)C)NC(=O)[C@H](C)NC1=O (relative stereo) [Compound R4152, ACE-NVA-CYS*-ALA-TBG-LYS-HIS-NMA-PHG-7AW-TYR-MFF-SAR-CYS*-NH2] | 28300 | – |
| C=CC(=O)NCC[C@@H]1NC(=O)[C@H](C)NC(=O)[C@H](C(C)(C)C)NC(=O)[C@H](Cc2ccc(O)cc2)NC(=O)[C@@H](NC(=O)[C@H](CCC)NC(C)=O)CSCc2cccc(c2)CSC[C@@H](C(N)=O)NC(=O)CN(C)C(=O)[C@H](Cc2ccc(F)cc2)N(C)C(=O)[C@H](Cc2ccc(O)cc2)NC(=O)[C@H](Cc2c[nH]c3ncccc23)NC(=O)[C@H](c2ccccc2)NC(=O)[C@H](C)N(C)C1=O (relative stereo) [Compound R4146, ACE-NVA-CYS*-TYR-TBG-ALA-DABAC1-NMA-PHG-7AW-TYR-MFF-SAR-CYS*-NH2] | 3390 | – |
| CCC[C@H](NC(C)=O)C(=O)N[C@H]1CSCc2cccc(c2)CSC[C@@H](C(=O)NCC(=O)NCC(=O)NCC(=O)N[C@@H](CS)C(=O)N[C@H](C(=O)N[C@H](C(=O)N[C@@H](CCSC)C(N)=O)[C@@H](C)CC)C(C)C)NC(=O)CN(C)C(=O)[C@H](Cc2ccc(F)cc2)N(C)C(=O)[C@H](Cc2ccc(O)cc2)NC(=O)[C@H](Cc2c[nH]c3ncccc23)NC(=O)[C@H](c2ccccc2)NC(=O)[C@H](C)N(C)C(=O)[C@H](Cc2c[nH]cn2)NC(=O)[C@H](CCCCN)NC(=O)[C@H](C(C)(C)C)NC(=O)[C@H](Cc2ccc(O)cc2)NC1=O (relative stereo) [Compound R4127, ACE-NVA-CYS*-TYR-TBG-LYS-HIS-NMA-PHG-7AW-TYR-MFF-SAR-CYS*-GLY-GLY-GLY-CYS-VAL-ILE-MET-NH2] | 148 | – |
| ACE-NVA-CYS*-TYR-TBG-DMABZK2-HIS-NMA-PHG-7AW-TYR-MFF-SAR-CYS*-NH2 (Ac-[Nva]CY[Tle]K(4‑(dimethylamino)benzoyl‑d4)H[NMeA][Phg][Trp(7-aza)]Y[NMePhe(4-F)][Sar]C-NH2; linker 2-13 via m‑xylylene) [Compound R4150, cyclized by a m-xylylene thioether bridge] | 7640 | – |
| ACE-NVA-CYS*-TYR-TBG-LYS-HIS-NMA-PHG-7AW-TYR-MFF-SAR-CYS*-PEG4PA-ADTZPA-NH2 (Ac-[Nva]CY[Tle]KH[NMeA][Phg][Trp(7-aza)]Y[NMePhe(4-F)][Sar]C-{PEG4-ADTZPA-NH2}; linker 2-13 via m‑xylylene) [Compound R4147, cyclized by a m-xylylene thioether bridge] | 5190 | – |
| CCC[C@H](NC(C)=O)C(=O)N[C@H]1CSCc2cccc(c2)CSC[C@@H](C(N)=O)NC(=O)CN(C)C(=O)[C@H](Cc2ccc(F)cc2)N(C)C(=O)[C@H](Cc2ccc(O)cc2)NC(=O)[C@H](Cc2c[nH]c3ncccc23)NC(=O)[C@@H](c2ccccc2)NC(=O)[C@H](C)N(C)C(=O)[C@H](C)NC(=O)[C@H](CCCCN)NC(=O)[C@H](C(C)(C)C)NC(=O)[C@H](Cc2ccc(O)cc2)NC1=O (relative stereo) [Compound R4153, ACE-NVA-CYS*-TYR-TBG-LYS-ALA-NMA-DPHG-7AW-TYR-MFF-SAR-CYS*-NH2] | 36400 | – |
| CCC[C@H](NC(C)=O)C(=O)N[C@H]1CSCc2cccc(c2)CSC[C@@H](C(N)=O)NC(=O)CN(C)C(=O)[C@H](Cc2ccc(F)cc2)N(C)C(=O)[C@H](Cc2ccc(O)cc2)NC(=O)[C@H](Cc2c[nH]c3ncccc23)NC(=O)[C@H](c2ccccc2)NC(=O)[C@H](CO)N(C)C(=O)[C@H](Cc2c[nH]cn2)NC(=O)[C@H](CCCCN)NC(=O)[C@H](C(C)(C)C)NC(=O)[C@H](Cc2ccc(O)cc2)NC1=O (relative stereo) [Compound R4132, ACE-NVA-CYS*-TYR-TBG-LYS-HIS-NMS-PHG-SA7AW-TYR-MFF-R-CYS*-NH2] | 281 | – |
| C#CC[C@@H]1NC(=O)CN(C)C(=O)[C@H](Cc2ccc(F)cc2)N(C)C(=O)[C@H](Cc2ccc(O)cc2)NC(=O)[C@H](Cc2c[nH]c3ncccc23)NC(=O)[C@H](c2ccccc2)NC(=O)[C@H](C)N(C)C(=O)[C@H](Cc2c[nH]cn2)NC(=O)[C@H](CCCCN)NC(=O)[C@H](C(C)(C)C)NC(=O)[C@H](Cc2ccc(O)cc2)NC(=O)CCCCCNC1=O [Compound R4137, AHX*-TYR-TBG-LYS-HIS-NMA-PHG-7AW-TYR-MFF-SAR-PRG*] (cyclo([Ahx]Y[Tle]KH[NMeA][Phg][Trp(7-aza)]Y[NMePhe(4-F)][Sar][Pra])) | 411 | – |
| CCC[C@H](NC(C)=O)C(=O)N[C@H]1CSCc2cccc(c2)CSC[C@@H](C(N)=O)NC(=O)CN(C)C(=O)[C@H](Cc2ccc(F)cc2)N(C)C(=O)[C@H](Cc2ccc(O)cc2)NC(=O)[C@H](Cc2c[nH]c3ncccc23)NC(=O)[C@H](c2ccccc2)NC(=O)[C@H](C)N(C)C(=O)[C@H](Cc2c[nH]cn2)NC(=O)[C@H](CCCCN)NC(=O)[C@H](C(C)(C)C)NC(=O)[C@H](Cc2ccc(O)cc2)N(C)C1=O (relative stereo) [Compound R4117, ACE-NVA-CYS*-NMY-TBG-LYS-HIS-NMA-PHG-7AW-TYR-MFF-SAR-CYS*-NH2] | 48.3 | – |
